Laboratory results published in the NIST ThermoML archive (doi:10.1016/j.fluid.2013.10.029).

How the values were obtained:
[1] = Liquid; for vapor or sublimation pressure: Ebulliometric method (Recirculating still); for mass density: 101 kPa, Vibrating tube method
[2] = excess molar enthalpy (molar enthalpy of mixing); xn = mol fraction of the nth substance listed; settings: 298.15 K, 101 kPa, Liquid, isothermal titration calorimeter
[3] = xn = mol fraction of the nth substance listed; settings: 101.33 kPa, Liquid, Vibrating tube method, x2 = 0

C1CCCCC1 [cyclohexane]
[1]
Settings	vapor or sublimation pressure [kPa]
338.15 K	61.5
348.15 K	84.7

c1cc[nH]c1 [pyrrole] + C1CCCCC1
[2]
Settings	excess molar enthalpy [kcal/mol]
x1 = 0.015	0.056
x1 = 0.03	0.0991
x1 = 0.0451	0.131
x1 = 0.0601	0.155
x1 = 0.0752	0.175
x1 = 0.0905	0.192
x1 = 0.1057	0.207
x1 = 0.1208	0.221
x1 = 0.1358	0.233
x1 = 0.1543	0.246
x1 = 0.1692	0.255
x1 = 0.184	0.264
x1 = 0.1989	0.272
x1 = 0.2139	0.279
x1 = 0.2288	0.286
x1 = 0.2437	0.292
x1 = 0.2587	0.297
x1 = 0.2737	0.302
x1 = 0.2887	0.307
x1 = 0.3037	0.311
x1 = 0.3186	0.315
x1 = 0.3337	0.319
x1 = 0.3485	0.322
x1 = 0.3677	0.327
x1 = 0.3829	0.33
x1 = 0.3982	0.333
x1 = 0.4135	0.335
x1 = 0.4287	0.337
x1 = 0.444	0.338
x1 = 0.4592	0.34
x1 = 0.4745	0.341
x1 = 0.4898	0.341
x1 = 0.505	0.341
x1 = 0.5203	0.341
x1 = 0.5355	0.34
x1 = 0.5507	0.34
x1 = 0.566	0.338
x1 = 0.5812	0.337
x1 = 0.5964	0.335
x1 = 0.6116	0.332
x1 = 0.6269	0.329
x1 = 0.6421	0.325
x1 = 0.6573	0.321
x1 = 0.6725	0.317
x1 = 0.6878	0.312
x1 = 0.703	0.306
x1 = 0.7182	0.298
x1 = 0.731	0.289
x1 = 0.7468	0.28
x1 = 0.7627	0.269
x1 = 0.7786	0.259
x1 = 0.7945	0.248
x1 = 0.8104	0.236
x1 = 0.8263	0.223
x1 = 0.8421	0.209
x1 = 0.858	0.193
x1 = 0.874	0.177
x1 = 0.8899	0.159
x1 = 0.9058	0.139
x1 = 0.9218	0.119
x1 = 0.9377	0.0962
x1 = 0.9537	0.0726
x1 = 0.9691	0.0481
x1 = 0.9846	0.0222

c1ccccc1 [benzene]
[1]
Settings	vapor or sublimation pressure [kPa]
338.15 K	62.1
348.15 K	86.4

c1cc[nH]c1 [pyrrole] + CCCCO
[2]
Settings	excess molar enthalpy [kcal/mol]
x1 = 0.0262	0.00454
x1 = 0.0776	0.0248
x1 = 0.1154	0.0454
x1 = 0.1526	0.0679
x1 = 0.189	0.091
x1 = 0.2248	0.114
x1 = 0.2599	0.135
x1 = 0.2944	0.155
x1 = 0.3283	0.174
x1 = 0.3616	0.19
x1 = 0.3943	0.205
x1 = 0.4265	0.217
x1 = 0.4581	0.228
x1 = 0.4891	0.236
x1 = 0.5196	0.242
x1 = 0.5497	0.246
x1 = 0.5703	0.246
x1 = 0.5792	0.248
x1 = 0.5803	0.246
x1 = 0.6003	0.247
x1 = 0.6082	0.248
x1 = 0.6203	0.246
x1 = 0.6225	0.248
x1 = 0.6403	0.244
x1 = 0.6603	0.241
x1 = 0.6803	0.238
x1 = 0.7003	0.233
x1 = 0.7203	0.227
x1 = 0.7403	0.22
x1 = 0.7603	0.211
x1 = 0.7803	0.202
x1 = 0.8002	0.191
x1 = 0.8202	0.179
x1 = 0.8403	0.166
x1 = 0.8603	0.151
x1 = 0.8802	0.135
x1 = 0.9002	0.117
x1 = 0.9201	0.0972
x1 = 0.9401	0.0761
x1 = 0.9601	0.0532
x1 = 0.98	0.0285

c1ccncc1 [pyridine]
[1]
Settings	mass density [kg/m3]	vapor or sublimation pressure [kPa]
298.15 K	978.01	–
308.15 K	967.91	–
318.15 K	957.76	–
328.15 K	947.56	–
338.15 K	937.3	–
353.15 K	–	32.3
363.15 K	–	45.9
373.15 K	–	63.7

c1cc[nH]c1 [pyrrole] + CCCCCO
[2]
Settings	excess molar enthalpy [kcal/mol]
x1 = 0.0374	0.00848
x1 = 0.0962	0.0373
x1 = 0.1388	0.0644
x1 = 0.1801	0.0927
x1 = 0.2202	0.12
x1 = 0.259	0.147
x1 = 0.2967	0.171
x1 = 0.3333	0.193
x1 = 0.3689	0.212
x1 = 0.4034	0.229
x1 = 0.437	0.243
x1 = 0.4696	0.254
x1 = 0.5014	0.263
x1 = 0.5323	0.269
x1 = 0.5604	0.271
x1 = 0.5624	0.273
x1 = 0.5804	0.272
x1 = 0.5916	0.275
x1 = 0.6004	0.273
x1 = 0.6202	0.275
x1 = 0.6204	0.272
x1 = 0.6404	0.271
x1 = 0.648	0.272
x1 = 0.6604	0.268
x1 = 0.6616	0.27
x1 = 0.6804	0.264
x1 = 0.7004	0.259
x1 = 0.7204	0.253
x1 = 0.7404	0.245
x1 = 0.7604	0.236
x1 = 0.7804	0.226
x1 = 0.8004	0.214
x1 = 0.8204	0.2
x1 = 0.8404	0.185
x1 = 0.8603	0.169
x1 = 0.8803	0.15
x1 = 0.9002	0.13
x1 = 0.9202	0.108
x1 = 0.9401	0.084
x1 = 0.9601	0.0576
x1 = 0.98	0.0289

c1cc[nH]c1 [pyrrole] + CCCO
[2]
Settings	excess molar enthalpy [kcal/mol]
x1 = 0.0299	0.00707
x1 = 0.0598	0.0144
x1 = 0.0897	0.0255
x1 = 0.1197	0.0392
x1 = 0.1497	0.0547
x1 = 0.1796	0.071
x1 = 0.2096	0.0877
x1 = 0.2396	0.104
x1 = 0.2696	0.12
x1 = 0.2996	0.136
x1 = 0.3296	0.15
x1 = 0.3596	0.163
x1 = 0.3896	0.175
x1 = 0.4197	0.185
x1 = 0.4497	0.193
x1 = 0.4652	0.199
x1 = 0.4797	0.2
x1 = 0.4902	0.205
x1 = 0.5202	0.211
x1 = 0.5502	0.215
x1 = 0.5803	0.217
x1 = 0.6103	0.218
x1 = 0.6403	0.216
x1 = 0.6703	0.212
x1 = 0.7003	0.206
x1 = 0.7303	0.198
x1 = 0.7603	0.188
x1 = 0.7903	0.175
x1 = 0.8203	0.159
x1 = 0.8503	0.14
x1 = 0.8802	0.119
x1 = 0.9101	0.0942
x1 = 0.9401	0.0658
x1 = 0.97	0.0338

c1ccncc1 [pyridine] + c1cc[nH]c1
[3]
Settings	mass density [kg/m3]
298.15 K	978.01
308.15 K	967.91
318.15 K	957.76
328.15 K	947.56
338.15 K	937.3

c1cc[nH]c1 [pyrrole]
[1]
Settings	mass density [kg/m3]	vapor or sublimation pressure [kPa]
298.15 K	965.54	–
308.15 K	956.83	–
318.15 K	948.03	–
328.15 K	939.14	–
338.15 K	930.13	9.4
348.15 K	–	14.6
353.15 K	–	18
358.15 K	–	21.9
363.15 K	–	26.8
373.15 K	–	38.5
